# From US8293278B2, “Compositions and methods for inhibiting reproduction in tadpole shrimp” (Fresno California State University, priority 2008, dated 2012)
# Columns and labels:
# [1] = exposed to oxidizing agents in the environment; cited from earlier work
# tadpole shrimp [2] = conditions: cited from earlier work
# tadpole shrimp [3] = test: Inhibition of sexual development in tadpole shrimp in laboratory conditions; format: in vivo, Triops longicaudatus
# Source text: As above, the dry base, the viscous additive, and the saline solution form the means for delivering the methyl farnesoate. In some embodiments, the composition may include a preparation comprising an effective amount of methyl farnesoate. In some embodiments, the composition can include a minimum of about 0.0001% methyl farnesoate by weight. In some embodiments, the composition can include a maximum of about 0.001% methyl farnesoate by weight. It has been determined that a concentration of as little as about 0.75 micrograms of methyl farnesoate per gram of the final composition is effective for inhibiting sexual development in tadpole shrimp in laboratory conditions. […] Thus, in some embodiments, compositions containing at least about […] micrograms of methyl farnesoate per gram of the final composition may be used to reduce sexual development in tadpole shrimp. However, it is to be appreciated that the percentage of methyl farnesoate by weight may be greater or less than these amounts in accordance with some embodiments of the present invention.
# [4] = Chemical stability of methyl farnesoate (oxidation, heat during drying); format: physicochemical; conditions: exposure to temperatures above about 50 degrees Celsius during drying
# Source text: Recent scientific studies have shown that the hormone methyl farnesoate [methyl-(2E,6E,10E)-3,7,11-trimethyldodecatri-2,6,10-eneoate] […] Because methyl farnesoate oxidizes quickly and therefore will not build up large concentrations in the soil, and because it is a fatty acid, it is not considered to be harmful to the environment or adversely affect crop production. However, it is for these same reasons that administration of methyl farnesoate is difficult to administer.
# In some further embodiments, the particles once formed can be dried to have a moisture content of, for example, about 5% and about 18%. Drying the particles assist in the efficient packaging, distribution, and dispensing of the particles. During such drying, the particles should not be exposed to extreme heat, which could reduce methyl farnesoate concentrations. […] Thus, in some embodiments, the pellets may be dried at a temperature below about 50 degrees Celsius. In some embodiments, relatively lower temperature drying can be enhanced by circulating ambient air over the particles.
compound,measurement,setting,value
"COC(=O)/C=C(\C)CC/C=C(\C)CCC=C(C)C [methyl farnesoate, methyl-(2E,6E,10E)-3,7,11-trimethyldodecatri-2,6,10-eneoate]",oxidative stability,[1],easily oxidized into farnesoic acid
same,"effect on growth, development and gamete production in pests such as tadpole shrimp",tadpole shrimp [2]; recent scientific studies,"inhibits growth, development, and gamete production"
same,effect on sexual development of tadpole shrimp,tadpole shrimp [2]; studies,reduces sexual development
same,concentration of methyl farnesoate effective for inhibiting sexual development in tadpole shrimp,tadpole shrimp [3],about 0.75 micrograms of methyl farnesoate per gram of the final composition
same,loss of methyl farnesoate concentration from the pellets on heating,[4],significant loss
